Assays:
[1] = system: multidrug resistance-associated protein (Mrp3); test: Mrp3 expression in rat liver; assay type: in vivo; conditions: treated rats; data not shown
Protocol: All animal experiments were conducted in accordance with the Guiding Principles in the Use of Animals in Toxicology (http://www.toxicology.org/ai/air/air6.asp) and were approved by Abbott's Institutional Animal Care and Use Committee (IACUC). Male Sprague-Dawley rats [Crl:CD®(SD)IGS BR], weighing ~250 g at study initiation were obtained from Charles River Laboratories, Inc. (Wilmington, MA). Rats were housed singly in ventilated, stainless steel, wire-bottom hanging cages and fed non-certified Rodent Chow (Harlan Labs, Madison, WI), and water ad libitum and acclimated for at least 5 days after arrival. […] Serum clinical chemistry parameters were quantified using an Aeroset Clinical Chemistry Analyzer (Abbott Laboratories, Abbott Park, IL) and included alanine amino transferase (ALT), aspartate amino transferase (AST), gamma glutamyltransferase (GGT), and alkaline phosphatase (ALP) activities.
Frozen liver or jejunum were immediately added to 4 ml of TRIzol reagent (Invitrogen Life Technologies) and homogenized using a Polytron 300D homogenizer (Brinkman Instruments, Westbury, NY). […] Nucleic acid concentration was determined by OD 260 nm (Smart-Spec, Bio-Rad Laboratories, Hercules, CA), and RNA integrity was evaluated using an Agilent 2100 bioanalyzer (Agilent Technologies, Foster City, CA). […]

rat Cyp 3A2 = biological target: T1, rat Cyp 3A2 (Rattus norvegicus, UniProt P05183); test: Recombinant rat Cyp phenotype profiling, 3A2; assay type: in vitro ADME; conditions: 60 min
T1 construct: purchased BD Gentest; host or cells: baculovirus infected insect cells
Protocol: (§1) Identification of the drug metabolizing enzymes (DMEs) of A-998679 was studied in cDNA expressed recombinant enzymes prepared from baculovirus infected insect cells over-expressing rat Cyp isoforms (BD Gentest, Woburn, MA) as listed in Table 2. Incubations were conducted in duplicate using Supersomes. The incubation mixture contained 100 pmol/ml of enzymes, except for Cyp1a1 (200 pmol/ml), 0.1 or 0.21 μM of [^3H]A-998679 in 100 mM phosphate buffer (pH 7.4). Reactions were initiated with the addition of NADPH at a final concentration of 1 mM and incubated at 37°C for 60 min. At the end of the incubation period, the incubations were terminated by the addition of acetonitrile/ethanol (50/50, v/v) solution. Insect control samples lacking expressed enzyme were used as negative control. The degree of metabolism of A-998679 was assessed by percent of parent remaining using the radio-HPLC method described below.
(§2) Radiolabeled components from the above assays were profiled following separation by HPLC with on line radioflow detector. The system consisted of an Agilent 1100 Series quaternary pump and autosampler connected to a Packard 500TR flow scintillation detector. The data were processed using the Radiomatic™ Flo-one® software v3.65. The scintillant (Perkin Elmer FLO-SCINT™ III) flow was maintained at 3 ml/min. […]

rat Cyp 2A2 = biological target: T2, rat Cyp 2A2 (Rattus norvegicus, UniProt P15149); test: Recombinant rat Cyp phenotype profiling, 2A2; assay type: in vitro ADME; conditions: 60 min
T2 construct: purchased BD Gentest; host or cells: baculovirus infected insect cells
Protocol: as §1, §2

rat Cyp 3A1 = biological target: T3, rat Cyp 3A1 (Rattus norvegicus, UniProt P04800); test: Recombinant rat Cyp phenotype profiling, 3A1; assay type: in vitro ADME; conditions: 60 min
T3 construct: purchased BD Gentest; host or cells: baculovirus infected insect cells
Protocol: as §1, §2

rat Cyp2c11 = biological target: T4, rat Cyp2c11 (Rattus norvegicus, UniProt P08683); test: Recombinant rat Cyp phenotype profiling, 2C11; assay type: in vitro ADME; conditions: 60 min
T4 construct: purchased BD Gentest; host or cells: baculovirus infected insect cells
Protocol: as §1, §2

T2 sequence (P15149 whole entry): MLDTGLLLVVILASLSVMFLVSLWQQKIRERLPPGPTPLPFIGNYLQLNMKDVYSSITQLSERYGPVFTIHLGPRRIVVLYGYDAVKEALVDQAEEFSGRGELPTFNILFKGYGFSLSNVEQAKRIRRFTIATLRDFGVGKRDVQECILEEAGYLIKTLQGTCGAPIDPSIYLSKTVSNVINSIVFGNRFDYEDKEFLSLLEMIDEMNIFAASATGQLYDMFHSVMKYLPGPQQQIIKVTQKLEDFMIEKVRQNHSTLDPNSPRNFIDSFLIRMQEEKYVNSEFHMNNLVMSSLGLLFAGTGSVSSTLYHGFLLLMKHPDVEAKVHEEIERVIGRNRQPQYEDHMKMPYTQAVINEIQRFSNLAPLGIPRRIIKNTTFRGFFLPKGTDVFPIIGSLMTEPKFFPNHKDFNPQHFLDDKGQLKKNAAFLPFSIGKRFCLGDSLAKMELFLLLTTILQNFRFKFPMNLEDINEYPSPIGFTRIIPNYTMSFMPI
T3 sequence (P04800 whole entry): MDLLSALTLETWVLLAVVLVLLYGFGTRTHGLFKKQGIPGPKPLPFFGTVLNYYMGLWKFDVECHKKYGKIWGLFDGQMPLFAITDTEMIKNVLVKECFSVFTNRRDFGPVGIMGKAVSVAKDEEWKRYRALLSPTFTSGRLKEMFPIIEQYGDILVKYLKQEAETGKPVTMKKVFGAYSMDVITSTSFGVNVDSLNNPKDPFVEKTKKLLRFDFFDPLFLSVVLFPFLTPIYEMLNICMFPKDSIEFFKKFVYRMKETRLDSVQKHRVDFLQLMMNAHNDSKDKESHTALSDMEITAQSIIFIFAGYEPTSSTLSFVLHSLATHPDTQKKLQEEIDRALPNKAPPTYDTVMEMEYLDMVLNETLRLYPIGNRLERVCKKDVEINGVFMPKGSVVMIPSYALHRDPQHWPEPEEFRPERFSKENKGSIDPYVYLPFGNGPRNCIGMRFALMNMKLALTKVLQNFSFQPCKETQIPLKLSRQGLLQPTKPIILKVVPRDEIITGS
T1 sequence (P05183 whole entry): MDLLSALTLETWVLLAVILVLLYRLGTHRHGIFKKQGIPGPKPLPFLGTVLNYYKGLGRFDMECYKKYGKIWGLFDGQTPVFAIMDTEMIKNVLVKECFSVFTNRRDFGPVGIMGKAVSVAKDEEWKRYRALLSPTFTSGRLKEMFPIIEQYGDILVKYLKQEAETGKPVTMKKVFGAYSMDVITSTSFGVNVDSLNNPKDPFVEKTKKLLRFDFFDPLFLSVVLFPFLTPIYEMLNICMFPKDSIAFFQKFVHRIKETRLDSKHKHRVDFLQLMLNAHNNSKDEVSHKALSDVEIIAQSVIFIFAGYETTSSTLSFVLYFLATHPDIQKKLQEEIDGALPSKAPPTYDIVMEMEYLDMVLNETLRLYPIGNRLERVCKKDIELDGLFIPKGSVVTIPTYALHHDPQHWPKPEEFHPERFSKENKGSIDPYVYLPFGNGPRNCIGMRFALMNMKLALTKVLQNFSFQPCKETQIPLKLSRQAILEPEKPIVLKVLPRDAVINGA
T4 sequence (P08683 whole entry): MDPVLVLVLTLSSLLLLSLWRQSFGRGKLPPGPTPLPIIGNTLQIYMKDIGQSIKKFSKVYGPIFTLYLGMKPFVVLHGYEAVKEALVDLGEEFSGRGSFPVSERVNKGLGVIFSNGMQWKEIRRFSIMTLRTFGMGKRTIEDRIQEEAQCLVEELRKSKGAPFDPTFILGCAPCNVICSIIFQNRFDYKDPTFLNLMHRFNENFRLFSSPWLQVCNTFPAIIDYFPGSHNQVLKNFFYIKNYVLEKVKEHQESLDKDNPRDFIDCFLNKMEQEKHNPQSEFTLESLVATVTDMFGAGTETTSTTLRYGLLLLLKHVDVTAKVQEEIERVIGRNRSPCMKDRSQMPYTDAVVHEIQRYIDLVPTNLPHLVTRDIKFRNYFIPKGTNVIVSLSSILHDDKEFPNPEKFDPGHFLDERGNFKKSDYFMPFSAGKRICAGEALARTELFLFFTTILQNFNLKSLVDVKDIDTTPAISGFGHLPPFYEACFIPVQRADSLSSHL

% parent remaining (rat Cyp 3A2; recombinant rat Cyp 3A2, 0.10 μM): 100%
% parent remaining (rat Cyp 3A2; recombinant rat Cyp 3A2, 0.21 μM): 94.2%
% parent remaining (rat Cyp 2A2; recombinant rat Cyp 2A2, 0.10 μM): 90.2%
% parent remaining (rat Cyp 2A2; recombinant rat Cyp 2A2, 0.21 μM): 77.8%
% parent remaining (rat Cyp 3A1; recombinant rat Cyp 3A1, 0.10 μM): 93.9%
% parent remaining (rat Cyp 3A1; recombinant rat Cyp 3A1, 0.21 μM): 90.3%
% parent remaining (rat Cyp2c11; recombinant rat Cyp 2C11, 0.10 μM): 78.1%
% parent remaining (rat Cyp2c11; recombinant rat Cyp 2C11, 0.21 μM): 28.8%
SMILES: N#Cc1cccc(-c2noc(-c3cccnc3)n2)c1 [A-998679, 3-(5-pyridin-3-yl-1,2,4-oxadiazol-3-yl) benzonitrile]
expression of Mrp3 in liver [1]: increased expression

— paper PMC3481155, “AhR activation underlies the CYP1A autoinduction by A-998679 in rats” (Frontiers in Genetics, 2012)
